Patent US20240076297A1, “ADENOSINE A2A AND A2B RECEPTOR DUAL ANTAGONISTS FOR IMMUNO-ONCOLOGY” (Merck Sharp & Dohme LLC, priority 2020, published 2024)
pIC50: −log10 of the molar value.

Biological target: human A2A adenosine receptor (Homo sapiens (Human), UniProt P29274)
Experiment: A2A binding affinity using SPA, Method (B)
Settings: [3H] SCH58261, A2A receptor-expressing membranes
Excerpt: Method (A) describes the procedure used to measure A2A binding affinity using radioligand binding. Method (B) describes the procedure used to measure A2A binding affinity using SPA technology. The method used to measure A2B binding affinity is also described below. The method used to determine the A2A IC50 value reported for each compound in the table is indicated next to the reported value. The A2B IC50 value measured using the A2B binding affinity assay is shown in the table next to the compound under the corresponding A2A value.
The A2A receptor affinity binding assay measured the amount of binding of a tritiated ligand with high affinity for the A2A adenosine receptor to membranes made from HEK293 or CHO cells recombinantly expressing the human A2A adenosine receptor, in the presence of varying concentrations of a compound of the invention. The data were generated using either filtration binding or a homogenous scintillation proximity assay (SPA).
Method (B): Measurement of A2A Binding Affinity Using SPA
Binding affinity using SPA was conducted as follows. Test compounds (50 nL) were dispensed into individual wells of a 384-well OptiPlate™ well (Perkin Elmer) by Echo® acoustic liquid transfer (Labcyte). 20 μL of 1.25 nM [^3H] SCH58261 ((7-(2-phenylethyl)-5-amino-2-(2-furyl)-pyrazolo-[4,3-e]-1,2,4-triazolo[1,5-c]pyrimidine)) in DPBS assay buffer (Dulbecco's phosphate buffered saline without calcium and magnesium, ThermoFisher Scientific, Cat. No. A1285601) supplemented with 10 mM MgCl2 was added. A2A receptor-expressing membranes were incubated with 20 μg/mL adenosine deaminase (Roche, Cat. No. 10 102 105 001) for 15 min at room temperature. The receptor-expressing membranes were then combined with wheat germ agglutinin-coated yttrium silicate SPA beads (GE Healthcare, Cat. No. RPNQ0023) in a ratio of 1:1000 (w/w) and incubated for 30 min at room temperature. 30 μL of the membrane/bead mixture (0.25 μg and 25 μg per well respectively) were added to the 384-well OptiPlate™ well. To define total and non-specific binding, wells containing 1% DMSO or 1 μM CGS15943 (Tocris Bioscience, Cat. No. 1699) respectively were also included in the experiment. The plate was incubated for 1 h at room temperature with agitation. The assay plate was then incubated for an h to allow the beads to settle before data were collected using a TopCount® (Perkin Elmer) scintillation counter. After normalization to total and non-specific binding, the percent effect at each compound concentration was calculated. The plot of percent effect versus the log of compound concentration was analyzed electronically using a 4-parameter logistic fit based on the Levenberg-Marquardt algorithm to generate IC50 values.

human A2A adenosine receptor, sequence (P29274 whole entry): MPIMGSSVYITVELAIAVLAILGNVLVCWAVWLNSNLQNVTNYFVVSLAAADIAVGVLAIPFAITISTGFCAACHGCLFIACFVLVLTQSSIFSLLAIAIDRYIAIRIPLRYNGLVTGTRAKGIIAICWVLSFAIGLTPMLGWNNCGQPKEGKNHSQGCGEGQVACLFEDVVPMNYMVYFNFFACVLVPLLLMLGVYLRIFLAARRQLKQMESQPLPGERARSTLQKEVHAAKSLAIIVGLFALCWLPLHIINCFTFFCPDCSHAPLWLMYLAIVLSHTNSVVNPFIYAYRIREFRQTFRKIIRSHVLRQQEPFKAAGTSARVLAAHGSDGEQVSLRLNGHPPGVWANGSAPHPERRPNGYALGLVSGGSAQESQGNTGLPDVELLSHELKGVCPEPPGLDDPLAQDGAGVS

| Structure (SMILES) | pIC50 |
| --- | --- |
| COc1cccc2c1nc(N)n1nc(CCCCl)nc21 [Example 1.1, 2-(3-chloropropyl)-7-methoxy-[1,2,4]triazolo[1,5-c]quinazolin-5-amine] | 7.81 |
| COc1cccc2c1nc(N)n1nc(CCCSc3ccc(C(F)(F)F)cc3)nc21 [Example 1.2, 7-methoxy-2-(3-((4-(trifluoromethyl)phenyl)thio)propyl)-[1,2,4]triazolo[1,5-c]quinazolin-5-amine] | 8.08 |
| COc1cccc2c1nc(N)n1nc(CSCc3ccc(F)cc3)nc21 [Example 1.3, 2-(((4-fluorobenzyl)thio)methyl)-7-methoxy-[1,2,4]triazolo[1,5-c]quinazolin-5-amine] | 8.14 |
| CCOCc1nc2c3cccc(OC)c3nc(N)n2n1 [Example 4.2, 2-(ethoxymethyl)-7-methoxy-[1,2,4]triazolo[1,5-c]quinazolin-5-amine] | 8.06 |
| COc1cccc2c1nc(N)n1nc(COCc3c(C)ccnc3C)nc21 [Example 4.5, 2-(((2,4-dimethylpyridin-3-yl)methoxy)methyl)-7-methoxy-[1,2,4]triazolo[1,5-c]quinazolin-5-amine] | 8.06 |
| COc1cccc2c1nc(N)n1nc(CO[C@H](C)c3ccc(F)cc3)nc21 [Example 4.6, (R)-2-((1-(4-fluorophenyl)ethoxy)methyl)-7-methoxy-[1,2,4]triazolo[1,5-c]quinazolin-5-amine] | 8.08 |
| CCC#CCOCc1nc2c3cccc(OC)c3nc(N)n2n1 [Example 4.9, 7-methoxy-2-((pent-2-yn-1-yloxy)methyl)-[1,2,4]triazolo[1,5-c]quinazolin-5-amine] | 8.21 |
| COc1cccc2c1nc(N)n1nc(COCCF)nc21 [Example 4.12, 2-((2-fluoroethoxy)methyl)-7-methoxy-[1,2,4]triazolo[1,5-c]quinazolin-5-amine] | 8.14 |

Stronger by pIC50, values ahead:

| pIC50 | Structure (SMILES) |
| --- | --- |
| 8.57 | COc1cccc2c1nc(N)n1nc(COCc3ccsc3)nc21 [Example 4.3, 7-methoxy-2-((thiophen-3-ylmethoxy)methyl)-[1,2,4]triazolo[1,5-c]quinazolin-5-amine] |
| 8.33 | COc1cccc2c1nc(N)n1nc(COCc3ccc(F)cc3)nc21 [Example 4.4, 2-(((4-fluorobenzyl)oxy)methyl)-7-methoxy-[1,2,4]triazolo[1,5-c]quinazolin-5-amine] |
| 8.34 | COc1cccc2c1nc(N)n1nc(CO[C@@H](C)c3ccc(F)cc3)nc21 [Example 4.7, (S)-2-((1-(4-fluorophenyl)ethoxy)methyl)-7-methoxy-[1,2,4]triazolo[1,5-c]quinazolin-5-amine] |
| 8.54 | COc1cccc2c1nc(N)n1nc(COCc3csc4ccccc34)nc21 [Example 4.8, 2-((benzo[b]thiophen-3-ylmethoxy)methyl)-7-methoxy-[1,2,4]triazolo[1,5-c]quinazolin-5-amine] |
| 8.36 | COc1cccc2c1nc(N)n1nc(COCC(F)F)nc21 [Example 4.10, 2-((2,2-difluoroethoxy)methyl)-7-methoxy-[1,2,4]triazolo[1,5-c]quinazolin-5-amine] |
| 8.46 | COc1cccc2c1nc(N)n1nc(COCC(F)(F)F)nc21 [Example 4.11, 7-methoxy-2-((2,2,2-trifluoroethoxy)methyl)-[1,2,4]triazolo[1,5-c]quinazolin-5-amine] |
| 8.24 | COc1cccc2c1nc(N)n1nc(COC(C)C)nc21 [Example 4.13, 2-(isopropoxymethyl)-7-methoxy-[1,2,4]triazolo[1,5-c]quinazolin-5-amine] |
